Measurements published in paper PMC10223284, “Category-Based Toxicokinetic Evaluations of Data-Poor Per- and Polyfluoroalkyl Substances (PFAS) using Gas Chromatography Coupled with Mass Spectrometry” (Toxics, 2023).
Several values for one entry are separate records, joined by “and”; a condition that tells them apart may be missing. Equal values may be shown once. Read-outs that look alike come from different tables or passages of the source.

Columns and labels:
human primary cells = settings: cited from earlier work
human plasma [1] = assay: Chemical stability in plasma over the UC assay time course (T5hr/T1hr); settings: for PPB_Stab_Fail: flag for stability failure in the plasma protein binding assay (1 = fail, 0 = pass); for Fstable.Med: median fraction stable in plasma, UC assay Level4
human plasma [2] = assay: Ultracentrifugation (UC) plasma protein binding assay, fraction unbound in plasma (fup); settings: for fup: 10 μM, 37 °C; for Fup.Med: median fraction unbound in plasma; for Fup.Med / Fup.point: UC assay Level4; for Fup.point: point estimate of fraction unbound in plasma
[3] = In vitro-in vivo extrapolation (IVIVE) to Css and administered equivalent dose (AED); parameters: species or system human; settings: for Clhep: IVIVE, hepatocyte Clint scaled to whole-liver clearance; for AED: administered equivalent dose from LOEC and Css; for Fub: fub=fup/(B:P), Fub set to 1 if needed; for CLint: scaled with HPGL 110 mill cells/g, Vl 1596 g
Description: Using the experimentally generated PPB (fraction unbound in plasma, fup) and hepatic Clint data, IVIVE was performed as previously described to calculate human steady-state plasma concentrations (Css). Briefly, experimental measures of fup are adjusted using blood:plasma partitioning information to estimate the fraction unbound in blood (fub). Experimental hepatocyte Clint data are scaled up to represent whole-liver clearance (L/h). […] Once estimated, these Css values are considered in conjunction with published in vitro bioactivity concentrations (i.e., lowest-observed effective concentrations, or LOECs) to calculate AEDs (Table 2). See Table S10 for all relevant IVIVE inputs, scalars, calculations, and outputs.

in vitro = settings: both, human, plasma
[4] = tested on: pooled human cryopreserved primary hepatocyte suspensions; assay: Hepatic metabolic stability (hepatocyte clearance) assay, substrate depletion; type: in vitro ADME
Excerpt: (§1) William’s Medium E (Gibco A1217601), dexamethasone, and cell maintenance cocktail B (Gibco CM4000) were obtained from Thermo Fisher Scientific (Waltham, MA, USA). Hepatosure OptiThaw media (P/N K8000; Lot No. 18–1–0322) was obtained from Sekisui Xenotech (Kansas City, KS, USA). Trypan blue solution (P/N 1450021) was obtained from Bio-Rad (Hercules, CA, USA). Pooled human cryopreserved primary hepatocyte suspensions were obtained from BioIVT (Westbury, NY, USA) and produced using nontransplantable tissue. The human 50-donor pool (mixed gender; Cat X0080005; Lot MYC), selected from BioIVT’s commercially available, prepooled lots, was selected following review of vendor-generated metabolic characterization information. Pooled, mixed-sex human plasma from de-identified donors was obtained from a commercial vendor that operates a U.S. Food and Drug Administration-licensed and inspected donor center (BioIVT bioivt.com (accessed 12 May 2023). Donors comprised five males and five females and ranged from 20 to 50 years of age. Plasma collected using anticoagulant K2EDTA was sterile-filtered ([…]) and stored at <−70 °C until use.
(§2) The hepatic metabolic stability assay measures the loss of a parent compound over time in a substrate-depletion approach. Briefly, hepatocyte suspensions, after a viability assessment, were diluted in complete William’s medium E (containing dexamethasone and cell maintenance cocktail B) prior to addition to 96-well polypropylene plates containing an equal volume of media spiked with the test compound (1 μM assay concentration; assay cell density = 50,000 cells/100 μL) and maintained at 37 °C with shaking. At each time point, relevant plates were crashed with an equal volume of ice-cold acetonitrile, centrifuged, and supernatant transferred to a new plate prior to storage at <−70 °C until quantitative analysis. Controls, run in parallel, included cell-free (i.e., media only) and metabolically inactivated hepatocytes to evaluate abiotic chemical stability in the aqueous media matrix with and without cellular protein. In preliminary runs, these controls were run at T0 and T240 only. If significant instability was noted, the hepatocyte clearance assay was rerun, including cell-free samples at each time point and metabolically inactivated hepatocytes at selected time points.
(§3) To process samples for quantitative analysis, samples were thawed and mixed. An aliquot of sample was removed and diluted in acetonitrile (1 part sample plus 9 parts acetonitrile) containing the relevant ISs selected for the PFAS being analyzed (See Table S2). The target at instrument concentration of each IS was 10 pg/μL.
(§4) The curves were generated using concentration/response ratios from the target analyte and IS, with either linear or quadratic regression models. The model and weighting, if necessary, were chosen to most accurately reflect the response of each compound and was evaluated by recalculating the individual calibration points using the curve. An acceptable model reflected an accuracy of ±30% of the theoretical value.
(§5) Hepatic metabolic clearance data were plotted in semi-log format (ln concentration vs. time) with three replicates at each time point, as previously described. […] The equations described below are used to calculate the chemical half-life (T½) and intrinsic in vitro clearance (Clin vitro) with units of μL/(min × million hepatocytes). In Equation (3), 2000 is a scalar used to adjust the assay cell number up to be consistent with units of 1 million cells in the Clint equation.
(§6) Negative controls, including media only and metabolically inactivated hepatocyte controls, were included to monitor abiotic loss (i.e., background clearance) during the assay. Where significant compound loss occurred using the analysis described above, background clearance rates were calculated and used to background-adjust hepatic metabolic clearance rates. […]

[5] = as above; type: in vitro ADME, human; settings: both sexes, human, hepatocytes
Excerpt: as §1, §2, §3, §4, §5, §6

[6] = Abiotic loss in negative controls of the hepatocyte clearance assay (cell-free media, metabolically inactivated hepatocytes); type: in vitro ADME; settings: for Hep_Stab_Fail: flag for stability failure in hepatocyte clearance assay controls (1 or Fst = fail, 0 = pass); for Negative Controls, Heat Treated (HT), concentration at 0 min / Negative Controls, Heat Treated (HT), concentration at 240 min: heat treated hepatocytes; for Negative Controls, Heat Treated (HT), concentration at 0 min / Negative Controls, Heat Treated (HT), concentration at 240 min / Negative Controls, No cells (NC), concentration at 0 min / Negative Controls, No cells (NC), concentration at 240 min: Rep 1-3
In short: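 Abiotic stability was checked with media-only and inactivated-hepatocyte controls, run at T0 and T240 or, on rerun, at more time points. Compound at 1 μM, 37 °C, acetonitrile quench. Loss rates served for background subtraction, and ≥50% loss by T120 meant exclusion.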

[7] = BioSeek lowest-observed effect concentration used for AED
[8] = minimum lowest-observed effect concentration, BioSeek platform
[9] = human plasma, ultracentrifugation
[10] = Assuming 1 mg/kg/day dose rate, BW 70 kg
[11] = human steady-state plasma concentration, assuming 1 mg/kg/day dosage
[12] = hepatocyte incubation, Rep 1-3, start conc 1000 nM
[13] = heat treated hepatocytes control, 0 vs 240 min
[14] = average of one UC run (run date in line above)
[15] = hepatocyte time course, NS = slope not significant

Compound: NC(=O)C(F)(F)C(F)(F)C(F)(F)C(F)(F)C(N)=O [Octafluoroadipamide]
- LOEC (human primary cells; [7]): 2.00 µM
- LOEC (human primary cells; [8]): 2 µM
- PPB_Stab_Fail (human plasma [1]): 0
- Mean Stability (T5hr/T1hr) (human plasma [1]; mean over all UC runs and replicates, human plasma): 0.977
- Fstable.Med (human plasma [1]): 0.546
- Stability (T5hr/ T1hr), Run-specific Avg (human plasma [1]; run-specific average): 0.982
- fup (human plasma [2]; [9]): 0.8201
- Fup.Med (human plasma [2]): 0.864
- Fup.point (human plasma [2]): 0.834
- Css [3, 10]: 0.10 mg/L and 0.34 uM
- Clhep [3]: 23.099 L/h
- AED [3]: 5.8401 mg/kg/day
- Fub [3]: 1
- Css [3, 11]: 0.34 µM
- CLint [3]: 517902 µL/min
- fraction unbound (in vitro; Fraction Unbound (fu), Run-specific Avg, run-specific average): 0.67
- fraction unbound (in vitro; Fraction Unbound (fu), replicate A, individual replicate A of the UC run dated in c8): 0.704
- fraction unbound (in vitro; Fraction Unbound (fu), replicate B, individual replicate B of the UC run dated in c8): 0.633
- fraction unbound (in vitro; Fraction Unbound (fu), replicate C, individual replicate C of the UC run dated in c8): 0.732
- fraction unbound (in vitro; Mean Fu (fraction unbound), mean over all UC runs and replicates, human plasma): 0.82
- fraction unbound (in vitro; Mean fu, fraction unbound in human plasma, ultracentrifugation, some values based on eLOQ): 0.82
- Concentration (nM), Time 0 min [4, 12]: 263.339 nM and 217.701 nM and 209.817 nM
- Concentration (nM), Time 15 min [4, 12]: 291.912 nM and 225.036 nM and 414.445 nM
- Concentration (nM), Time 30 min [4, 12]: 391.931 nM and 314.083 nM and 336.529 nM
- Concentration (nM), Time 60 min [4, 12]: 437.175 nM and 457.948 nM and 302.199 nM
- Concentration (nM), Time 120 min [4, 12]: 293.394 nM and 338.799 nM and 278.045 nM
- Linear Regression Results, Best-Fit Values, Slope ([4]; hepatocyte time course): -0.002646
- hepatocyte CLint at 1 μM ([5]; background-subtracted, read-out: Bkgd-Sub Clearance (µL/min/106 hepatocytes)): 2.95 µL/min/1e6 cells
- hepatocyte CLint at 1 μM ([5]; pooled human hepatocyte suspensions, 1 μM, read-out: In Vitro Clint): 2.95 µL/min/1e6 cells
- hepatocyte CLint at 1 μM ([5]; unadjusted hepatocyte intrinsic clearance, read-out: Unadj in vitro Clint): 5.29 µL/min/1e6 cells
- hepatocyte CLint at 1 μM ([5]; hepatocyte time course, NS = slope not significant, read-out: Linear Regression Results, Best-Fit Values, Clearance): 5.29 µL/min/1e6 cells
- half-life at 1 μM ([5]; hepatocyte time course, NS = slope not significant, read-out: Linear Regression Results, Best-Fit Values, Half Life): 4.37 h
- half-life at 1 μM ([6]; both sexes, human, heat treated hepatocytes control, 0 vs 240 min, read-out: HT BkgdCl, Half Life): 7.63 h
- half-life at 1 μM ([6]; buffer, no cells control, 0 vs 240 min, read-out: No Cells BkgdCl, Half Life): 9.88 h
- Hep_Stab_Fail [6]: 0
- HT BkgdCl, Slope [6, 13]: -0.001514
- Negative Controls, Heat Treated (HT), concentration at 0 min [6]: 209.171 nM and 207.599 nM and 206.567 nM
- Negative Controls, Heat Treated (HT), concentration at 240 min [6]: 153.885 nM and 136.838 nM and 143.186 nM
- No Cells BkgdCl, Slope ([6]; no cells control, 0 vs 240 min): -0.00117
- Negative Controls, No cells (NC), concentration at 0 min [6]: 214.709 nM and 240.687 nM and 228.618 nM
- Negative Controls, No cells (NC), concentration at 240 min [6]: 175.164 nM and 151.709 nM and 191.604 nM

Compound: 3-(Perfluoro-2-butyl) propane-1,2-diol
- LOEC (human primary cells; [7]): 2.00 µM
- LOEC (human primary cells; [8]): 2 µM
- Stability (T5hr/ T1hr), Run-specific Avg (human plasma [1]; [14]): 0.962
- PPB_Stab_Fail (human plasma [1]): 0
- Mean Stability (human plasma [1]; mean T5hr/T1hr ratio over all replicates and runs, plasma): 0.965
- Fstable.Med (human plasma [1]): 0.232
- Stability (T5hr/ T1hr), replicates A, B, C (human plasma [1]; single replicate of one UC run): 0.883 and 0.994 and 1.018
- Fraction Unbound (fu), Run-specific Avg (human plasma [2]; [14]): 0.37
- Mean fu (human plasma [2]; fraction unbound in human plasma, ultracentrifugation, some values based on eLOQ): 0.3696
- fup (human plasma [2]; [9]): 0.3696
- Mean Fu (human plasma [2]; mean fraction unbound over all replicates and runs, UC assay, human plasma): 0.370
- Fup.Med (human plasma [2]): 0.364
- Fup.point (human plasma [2]): 0.37
- Fraction Unbound (fu), replicates A, B, C (human plasma [2]; single replicate of one UC run (aqueous fraction / Time 5 hr)): 0.349 and 0.339 and 0.421
- Css [3, 10]: 0.09 mg/L and 0.30 uM
- Clhep [3]: 28.460 L/h
- AED [3]: 6.5951 mg/kg/day
- Fub [3]: 0.672
- Css [3, 11]: 0.30 µM
- CLint [3]: 1032293 µL/min
- Clint.1.Med ([4]; Bayesian analysis median, 1 μM assay concentration (Table S9)): 4.6
- Bkgd-Sub Clearance (µL/min/106 hepatocytes) ([4]; background-subtracted): 5.876 µL/min/106 hepatocytes
- Unadj Clint ([4]; hepatocyte clearance, Conc 1000 nM, not background adjusted): 8.61
- Concentration (nM), Time 0 min [4, 12]: 880.591 nM and 1037.48 nM and 1054.86 nM
- Concentration (nM), Time 15 min [4, 12]: 858.26 nM and 1099.86 nM and 993.717 nM
- Concentration (nM), Time 30 min [4, 12]: 742.136 nM and 974.371 nM and 915.81 nM
- Concentration (nM), Time 60 min [4, 12]: 904.196 nM and 908.986 nM and 744.943 nM
- Concentration (nM), Time 120 min [4, 12]: 623.052 nM and 608.094 nM and 642.654 nM
- Concentration (nM), Time 240 min [4, 12]: 400.866 nM and 351.17 nM and 326.466 nM
- Linear Regression Results, Best-Fit Values, Slope ([4]; hepatocyte time course): -0.004305
- Linear Regression Results, Best-Fit Values, Clearance [4, 15]: 8.61
- Linear Regression Results, Best-Fit Values, Half Life [4, 15]: 160.976
- In Vitro Clint ([4]; pooled human hepatocyte suspensions, 1 μM): 5.88 μL/min/10^6 cells
- Unadj in vitro Clint ([4]; unadjusted hepatocyte intrinsic clearance): 8.61
- Hep_Stab_Fail [6]: 0
- HT BkgdCl, Half Life [6, 13]: 285.42
- HT BkgdCl, Slope [6, 13]: -0.002428
- Negative Controls, Heat Treated (HT), concentration at 0 min [6]: 1083.95 nM and 2011.47 nM and 1037.82 nM
- Negative Controls, Heat Treated (HT), concentration at 240 min [6]: 725.383 nM and 763.18 nM and 711.759 nM
- No Cells BkgdCl, Half Life ([6]; no cells control, 0 vs 240 min): 506.95
- No Cells BkgdCl, Slope ([6]; no cells control, 0 vs 240 min): -0.001367
- Negative Controls, No cells (NC), concentration at 0 min [6]: 1136.56 nM and 1061.97 nM
- Negative Controls, No cells (NC), concentration at 240 min [6]: 792.448 nM and 800.439 nM and 781.338 nM
